The test system of this series is CCRIS mutagenicity, Ames/micronucleus/aberration tests. Kind of series: CCRIS mutagenicity studies.
[1] abbreviates: Test System: AMES SALMONELLA TYPHIMURIUM, Strain/Indicator: TA100, Metabolic Activation: NONE, Method: STANDARD PLATE.
The mark [2] stands for this setting: Test System: AMES SALMONELLA TYPHIMURIUM, Strain/Indicator: TA1535, Metabolic Activation: NONE, Method: STANDARD PLATE.
Where [3] appears, read: Test System: UDS RAT HEPATOCYTES, Strain/Indicator: THY INCORP, Metabolic Activation: NONE, Method: AUTORADIOGRAPHY
[4] abbreviates: Test System: AMES SALMONELLA TYPHIMURIUM, Strain/Indicator: TA100, Metabolic Activation: NONE, Method: PREINCUBATION

The record followed here is PubChem BioAssay AID1259407 (Chemical Carcinogenesis Research Information System (CCRIS), 2018).

The source made the active and inactive calls. The rule behind the calls is not given here.

Take `CC(C)Cl`: the mutagenic call runs as follows: (End Point: In vitro micronucleus, Test System: Chinese Hamster Ovary (CHO-WBL) cells, Metabolic Activation: None) “inactive; negative”; (Test System: AMES SALMONELLA TYPHIMURIUM, Strain/Indicator: TA100, Metabolic Activation: NONE, Method: DESICCATOR) “active; positive”; (Test System: AMES SALMONELLA TYPHIMURIUM, Strain/Indicator: TA100, Metabolic Activation: RAT, LIVER, S-9, AROCLOR 1254, Method: DESICCATOR) “active; positive”.
Turning to `O=C1CCO1`, the mutagenic call by setting is: under setting [1], “active; positive”; (Test System: AMES SALMONELLA TYPHIMURIUM, Strain/Indicator: TA100, Metabolic Activation: RAT, LIVER, S-9, KC500 OR PHENOBARBITAL, Method: LIQUID SUSPENSION) “active; positive”; under setting [2], “active; positive”; (Test System: CHINESE HAMSTER V-79, Strain/Indicator: V-79/6-THIOGUANINE, Metabolic Activation: NONE, Method: FLASK ASSAY) “active; positive”; (Test System: MOUSE LYMPHOMA, Strain/Indicator: L5178Y (TK+/TK-), Metabolic Activation: NONE, Method: SUSPENSION/PLATE) “active; positive”; (Test System: MOUSE LYMPHOMA, Strain/Indicator: L5178Y (TK+/TK-), Metabolic Activation: RAT, LIVER, S-9, AROCLOR 1254, Method: SUSPENSION/PLATE) “active; positive”. The mutagenic call by setting is: (Test System: UDS HUMAN FIBROBLASTS, Strain/Indicator: THY INCORP (NON-S-PHASE), Metabolic Activation: NONE, Method: LIQUID SCINTILLATION COUNTING) “active; positive”; (Test System: UDS HUMAN LYMPHOCYTES, Strain/Indicator: THY INCORP (NON-S-PHASE), Metabolic Activation: NONE, Method: LIQUID SCINTILLATION COUNTING) “active; positive”; (Test System: UDS RODENT PRIMARY CELLS, Strain/Indicator: THY INCORP (NON-S-PHASE), Metabolic Activation: NONE, Method: AUTORADIOGRAPHY) “active; positive”.
With `C1CCCC2OC2CC1` (configuration not stated), the mutagenic call under setting [1] was “inactive; negative”; the mutagenic call (Test System: AMES SALMONELLA TYPHIMURIUM, Strain/Indicator: TA100, Metabolic Activation: RAT, LIVER, S-9, AROCLOR 1254, Method: STANDARD PLATE) is “inactive; negative”; the mutagenic call under setting [2] was “inactive; negative”; the mutagenic call (Test System: AMES SALMONELLA TYPHIMURIUM, Strain/Indicator: TA1535, Metabolic Activation: RAT, LIVER, S-9, AROCLOR 1254, Method: STANDARD PLATE) is “inactive; negative”; the mutagenic call (Test System: UDS RAT HEPATOCYTES, Strain/Indicator: THY INCORP, Metabolic Activation: NONE) is “inactive; negative”.
Consider `C/C=C1\C[C@@H](C)[C@](C)(OC(C)=O)C(=O)OC/C2=C/CN(C)CC[C@@H](OC1=O)C2=O`, for which the mutagenic call runs as follows: (Test System: AMES SALMONELLA TYPHIMURIUM, Strain/Indicator: TA100, Metabolic Activation: HAMSTER, LIVER, S-9, PCB, Method: PREINCUBATION) “inactive; negative; by authors criteria results are positive”; (Test System: AMES SALMONELLA TYPHIMURIUM, Strain/Indicator: TA100, Metabolic Activation: RAT, LIVER, S-9, PCB, Method: PREINCUBATION) “active; positive”; under setting [3], “active; positive”.
On to `CC(=O)OCC12OOC1(C)c1ccccc1O2` (configuration not stated), for which, under setting [4], the mutagenic call was “active; positive”.
As to `O=[N+]([O-])c1cc([N+](=O)[O-])c2ccccc2c1`, the mutagenic call (Test System: AMES SALMONELLA TYPHIMURIUM, Strain/Indicator: TA98, Metabolic Activation: HAMSTER, LIVER, S-9, AROCLOR 1254 (30%), Method: PREINCUBATION) is “active; positive”; the mutagenic call (Test System: AMES SALMONELLA TYPHIMURIUM, Strain/Indicator: TA98, Metabolic Activation: NONE, Method: PREINCUBATION) was “active; positive”; the mutagenic call (Test System: AMES SALMONELLA TYPHIMURIUM, Strain/Indicator: TA98, Metabolic Activation: RAT, LIVER, S-9, AROCLOR 1254 (30%), Method: PREINCUBATION) was “active; positive”; the mutagenic call (Test System: AMES SALMONELLA TYPHIMURIUM, Strain/Indicator: TA100, Metabolic Activation: HAMSTER, LIVER, S-9, AROCLOR 1254 (30%), Method: PREINCUBATION) was “active; positive”; the mutagenic call under setting [4] was “active; positive”; the mutagenic call (Test System: AMES SALMONELLA TYPHIMURIUM, Strain/Indicator: TA100, Metabolic Activation: RAT, LIVER, S-9, AROCLOR 1254 (30%), Method: PREINCUBATION) is “active; positive”.
With `CC(C)NCC(O)COc1ccc(CC(N)=O)cc1` (configuration not stated), the mutagenic call (Test System: AMES SALMONELLA TYPHIMURIUM, Strain/Indicator: TA98, Metabolic Activation: NONE) was “inactive; negative”; the mutagenic call (Test System: AMES SALMONELLA TYPHIMURIUM, Strain/Indicator: TA98, Metabolic Activation: RAT, LIVER, S-9, AROCLOR 1254) was “inactive; negative”; the mutagenic call (Test System: AMES SALMONELLA TYPHIMURIUM, Strain/Indicator: TA100, Metabolic Activation: NONE) was “inactive; negative”; the mutagenic call (Test System: AMES SALMONELLA TYPHIMURIUM, Strain/Indicator: TA100, Metabolic Activation: RAT, LIVER, S-9, AROCLOR 1254) is “inactive; negative”; the mutagenic call (Test System: AMES SALMONELLA TYPHIMURIUM, Strain/Indicator: TA1535, Metabolic Activation: NONE) is “inactive; negative”; the mutagenic call (Test System: AMES SALMONELLA TYPHIMURIUM, Strain/Indicator: TA1535, Metabolic Activation: RAT, LIVER, S-9, AROCLOR 1254) was “inactive; negative”. Also, the mutagenic call reads like this: (Test System: AMES SALMONELLA TYPHIMURIUM, Strain/Indicator: TA1537, Metabolic Activation: NONE) “inactive; negative”; (Test System: AMES SALMONELLA TYPHIMURIUM, Strain/Indicator: TA1537, Metabolic Activation: RAT, LIVER, S-9, AROCLOR 1254) “inactive; negative”; (Test System: UDS HUMAN HEPATOCYTES, Strain/Indicator: THY INCORP, Metabolic Activation: NONE, Method: AUTORADIOGRAPHY) “inactive; negative”; under setting [3], “inactive; negative”.
